Measured values taken from patent US20240132514A1, “PYRIDINE DERIVATIVES AS MODULATORS OF SORTILIN ACTIVITY” (Insusense ApS, priority 2021, published 2024).
Like-named read-outs stand apart in the source and are kept apart here.

Target: human full length sortilin (Homo sapiens (Human), UniProt Q99523)
Experiment: Human sortilin neurotensin scintillation proximity (SPA) binding assay
Conditions: for IC50: 150 nM His-tagged human full length sortilin, SPA
Method: NTS, which is a 13 amino acid neuropeptide, is a sortilin ligand. The IC50 is a measure of the amount of the compound required to inhibit the binding of NTS to sortilin by 50%. The skilled person will recognise that the lower the IC50 value, the less of the compound needed to achieve the desired effect, and as a result, the chances of undesirable off-target effects are reduced.
The compound affinity was determined by measuring the inhibition of ^3H-neurotensin and/or ^125I-neurotensin binding to human full length sortilin using a Scintillation Proximity Assay (SPA) format.
The human sortilin SPA binding assay was performed in a total volume of 40 μl in 50 mM HEPES pH 7.4 assay buffer containing 100 mM NaCl, 2.0 mM CaCl2, 0.1% (v:v) BSA and 0.1% (v:v)Tween-20. Varying concentration of test compounds where pre-incubated for 30 min at RT with 150 nM of c-terminal hexahistidine- human full length Sortilin (RD Systems). […] 0.1 mg PVT copper HIS-tag imaging beads (Perkin Elmer) was added and the plate was agitated at 400 rpm in the dark for 1 hr. The SPA beads were allowed a minimum 2 hours settling time before the plate was read on a Hidex Sense 425-301 scintillation reader with a 45 sec exposure time. Concentration-response evaluation of test compounds was performed with 8 different concentrations of compound (covering 3 decades). […] The compound potency results were converted to inhibition constant Ki values (nM) derived from calculated IC50 values converted to Ki values using the Cheng-Prusoff equation (Ki=IC50/(I+(L/Kd))).

[1] = 5 nM [3H]-Neurotensin radioligand, read-out: hSortilin NTS Binding IC50 (nM) [3H] neurotensin

Chain of human full length sortilin (Q99523 78-755): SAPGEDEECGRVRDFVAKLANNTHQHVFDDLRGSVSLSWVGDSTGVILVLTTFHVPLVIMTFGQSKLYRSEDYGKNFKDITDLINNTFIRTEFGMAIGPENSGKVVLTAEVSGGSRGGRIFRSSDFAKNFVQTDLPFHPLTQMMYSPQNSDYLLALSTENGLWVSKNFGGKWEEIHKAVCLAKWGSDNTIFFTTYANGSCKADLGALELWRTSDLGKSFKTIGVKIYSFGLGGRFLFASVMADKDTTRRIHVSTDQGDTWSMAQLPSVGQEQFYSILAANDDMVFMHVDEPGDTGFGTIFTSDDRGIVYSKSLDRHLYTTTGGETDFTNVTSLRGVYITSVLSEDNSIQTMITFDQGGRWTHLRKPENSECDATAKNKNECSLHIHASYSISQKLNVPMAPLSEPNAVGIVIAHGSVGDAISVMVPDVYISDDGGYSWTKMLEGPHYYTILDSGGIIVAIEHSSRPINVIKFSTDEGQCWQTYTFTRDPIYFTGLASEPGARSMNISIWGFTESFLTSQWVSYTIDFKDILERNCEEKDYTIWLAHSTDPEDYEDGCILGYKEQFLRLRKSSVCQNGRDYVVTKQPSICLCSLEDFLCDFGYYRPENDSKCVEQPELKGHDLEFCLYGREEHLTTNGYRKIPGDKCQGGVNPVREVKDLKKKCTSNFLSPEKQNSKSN

| Structure (SMILES) | IC50 (0.35 nM [125I]-Neurotensin radioligand, read-out: hSortilin NTS binding IC50 (nM) [125I] neurotensin) [nM] | IC50 [1] [nM] | Ki (derived from IC50 using the Cheng-Prusoff equation, Kd of neurotensin […], read-out: hSortilin Ki) [nM] |
| --- | --- | --- | --- |
| O=C(O)c1cc(C(F)(F)F)ccc1C(=O)Nc1ccc2c(n1)COCC2 [Example 2, 2-({5H,6H,8H-pyrano[3,4-b]pyridin-2-yl}carbamoyl)-5-(trifluoromethyl)benzoic acid] | 105 | 60 | – |
| COCc1cccc(NC(=O)c2ccc(C(F)(F)F)cc2C(=O)O)n1 [Example 24, 2-{[6-(methoxymethyl)pyridin-2-yl]carbamoyl}-5-(trifluoromethyl)benzoic acid] | – | 725 | – |
| O=C(O)c1cc(C(F)(F)F)ccc1C(=O)Nc1cccc(CO)n1 [Example 3, 2-{[6-(hydroxymethyl)pyridin-2-yl]carbamoyl}-5-(trifluoromethyl)benzoic acid] | – | 340 | 340 |
